The source of these data is patent publication US20080312140A1, “Compositions and Methods for Preventing or Treating Hiv Infection” (priority 2005, published 2008).

As a reminder, the IC50 is the concentration that gives 50% inhibition.

Like-named read-outs stand apart in the source and are kept apart here. No end group written: not given here.

The assay relates to infection of CD4+ human cells (CD4 expressing Hela P4 cells) by HIV-1. The format is cell-based. The conditions noted are these: for IC50: FIG. 3; for relative infection inhibition activity within the peptide set: peptides assayed at 100 μg/ml, FIG. 2 / FIG. 6. As for the experimental part:
Biological Activity Results of C2 peptide analogs Cell Infection Inhibition Assay The assay consisted of CD4 expressing Hela P4 cells containing the […] reporter gene placed downstream the HIV-LTR promotor. These cells, were seeded 24 hours prior to viral infection at a density of 5×10^5 […] in 24 well culture plates (TPP model by Beyneix). 50 μL of virus solution prepared from CEM infected cells' supernatant, were incubated for 1 hour with the assayed peptides at the required concentrations, at 4° C. 10 μg of anti CD4 monoclonal antibodies 13B8.2 or Leu3A were used as control. After incubation the virus solution was diluted to a total volume of 1 ml and was added to the Hela P4 cells. The cells were incubated at these conditions for 3 days after which their infection rate was assayed according to the […] activity in the cells extract.
The cells were washed well, harvested and disintegrated in a buffer containing 60 mM Na2HPO4, 40 mM NaH2PO4, 10 mM KCl, 1 mM MgSO4, 50 mM β-mercaptoethanol, 2.5 mM EDTA, 0.125% NP40, 0.125% triton, 20% glycerol, 0.2 mM PMSF and 100 U/ml approtinin. The cells extract was cleaned by centrifuge at 4° C. for 15 min at 13,000 rpm. β-galactosidase activity was determined by incubation of 150 μL of total cell extract at 37° C. for 2 hours in the presence of 6 mM ONPG (O-Nitrophenyl-β-D-galactopyranoside) in a buffer containing 80 mM Na2HPO4, 1 mM β-mercaptoethanol and 10 mMMgCl2, followed by absorption measurement at 410 nm. The β-galactosidase activity was normalized according to the total protein quantity in the assay.
This figure includes, for comparison, the inhibition of the lead peptide C2-1, as determined in the cell infection inhibition assay.

Where [1] appears, read: average of peptides C2-2 and C2-3, Hela P4 cells, read-out: average IC50 value.

As to `N=C(N)NCCC[C@@H]1NC(=O)CCC(=O)N[C@@H](CCC(N)=O)C(=O)NCC(=O)N[C@@H](CO)C(=O)N[C@@H](Cc2ccccc2)C(=O)N(CC(N)=O)CCNC1=O` [Peptide C2-1], the “relative infection inhibition activity within the peptide set” value is on record as “most active”. Further, the IC50 (CD4 expressing Hela P4 cells, several concentrations, read-out: IC50 (infection inhibition)) turned out to be 33 µM.
Turning to “C3-19: backbone cyclic C3 peptide of Scheme 1 (SEQ ID NO:7) (RQGSGF; also: backbone cyclic) [Peptide C3-19]”, where the note is “C3 peptides, FIG. 6: assayed at 100 μg/ml, mean of 3 assays, text: C3-25 at 100 μM”, the inhibition of infection came out at 64±12%.
For `N=C(N)NCCC[C@@H]1NC(=O)CCCCC(=O)N[C@@H](CCC(N)=O)C(=O)NCC(=O)N[C@@H](CO)C(=O)N[C@@H](Cc2ccccc2)C(=O)N(CC(N)=O)CCNC1=O` [Peptide C2-3], the “relative infection inhibition activity within the peptide set” value was “most active”. In addition, the half-maximal inhibitory concentration (IC50) under setting [1] turned out to be 81 ± 2 µM.
For `N=C(N)NCCC[C@@H]1NC(=O)CCCC(=O)N[C@@H](CCC(N)=O)C(=O)NCC(=O)N[C@@H](CO)C(=O)N[C@@H](Cc2ccccc2)C(=O)N(CC(N)=O)CCNC1=O` [Peptide C2-2], in that order: “most active” and 81 ± 2 µM.
